US20250388593A1 (MITSUBISHI TANABE PHARMA CORPORATION, priority 2023, published 2025)

What follows are compounds tested against CRBN truncate (318-426) (Homo sapiens (Human), UniProt Q96SW2) (assay: Measurement of molecular interactions using surface plasmon resonance (SPR), Biacore T200). Details: 25° C., immobilized CRBN truncate, upper limit of measurement 200 μM.
Assay type: binding
Description: The instrument used was the Biacore T200 (manufactured by Cytiva). The CRBN truncate (318-426) was obtained by expressing a construct with an Avi-tag added at the C-terminus. The sensor chip used was Sensor Chip SA (manufactured by Cytiva). The CRBN truncate was immobilized using the affinity between SA (streptavidin) on the sensor chip and the Avi-tag. The running buffer was a mixture of 10 mM HEPES pH 7.5, 150 mM NaCl, 1 mM TCEP, 0.005% Tween 20, and 2% DMSO. […] Contact time and dissociation time were set at 60 seconds and 120 seconds, respectively.

Sequence of CRBN truncate (318-426) (Q96SW2 318-426): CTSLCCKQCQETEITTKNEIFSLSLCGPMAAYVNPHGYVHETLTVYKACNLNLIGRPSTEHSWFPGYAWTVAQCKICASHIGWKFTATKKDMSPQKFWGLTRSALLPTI

`Nc1ccc2nc(N3CCC4(CCCC(=O)NC4=O)C3)sc2c1` (centres unmarked) [Example 85, 2-(6-Amino-1,3-benzothiazol-2-yl)-2,7-diazaspiro[4.6]undecane-6,8-dione] and `CC(=O)Nc1ccc2nc(N3CCC4(CCCC(=O)NC4=O)C3)sc2c1` (centres unmarked) [Example 87, N-[2-(6,8-dioxo-2,7-diazaspiro[4.6]undecan-2-yl)-1,3-benzothiazol-6-yl]acetamide] cannot be ordered by Kd: 50 to 100 µM for the first, ≥ 100 µM for the second.

`Nc1ccc(N2CCC3(CCCC(=O)NC3=O)C2)c(F)c1` (centres unmarked) [Example 86, 2-(4-Amino-2-fluorophenyl)-2,7-diazaspiro[4.6]undecane-6,8-dione] and `CC(=O)Nc1ccc(N2CCC3(CCCC(=O)NC3=O)C2)c(F)c1` (centres unmarked) [Example 88, N-[4-(6,8-dioxo-2,7-diazaspiro[4.6]undecan-2-yl)-3-fluorophenyl]acetamide] cannot be ordered by Kd: ≥ 100 µM for the first, ≥ 100 µM for the second.

`CC(=O)N1CCN(Cc2ccc(N3CCC4(CCCC(=O)NC4=O)C3)nc2)CC1` (centres unmarked) [Example 89, 2-[5-[(4-Acetylpiperazin-1-yl)methyl]pyridin-2-yl]-2,7-diazaspiro[4.6]undecane-6,8-dione] and `CC(C)(C)OC(=O)N1CCN(Cc2ccc(N3CCC4(CCCC(=O)NC4=O)C3)nc2)CC1` (centres unmarked) [Example 99, tert-Butyl 4-[[6-(6,8-dioxo-2,7-diazaspiro [4.6]undecan-2-yl)pyridin-3-yl]methyl]piperazine-1-carboxylate] cannot be ordered by Kd: ≥ 100 µM for the first, ≥ 100 µM for the second.

First: CC(C)(C)OC(=O)c1ccc(N2CCC3(CCCC(=O)NC3=O)C2)nc1 (centres unmarked) [Example 90-1, tert-Butyl 6-(6,8-dioxo-2,7-diazaspiro [4.6]undecan-2-yl) pyridine-3-carboxylate]
Second: CC(C)(C)OC(=O)c1ccc(N2CCCC3(CCCC(=O)NC3=O)C2)nc1 (centres unmarked) [Example 93, tert-Butyl 6-(7,9-dioxo-2,8-diazaspiro [5.6]dodecan-2-yl) pyridine-3-carboxylate]
The Kd of the first is lower: < 50 µM for the first, ≥ 100 µM for the second. The first binds more tightly here.

`CC(C)(C)OC(=O)c1ccc(N2CCC3(CCCC(=O)NC3=O)C2=O)nc1` (centres unmarked) [Example 90-2, tert-Butyl 6-(1,9,11-trioxo-2,10-diazaspiro [4.6]undecan-2-yl) pyridine-3-carboxylate] and `CC(C)(C)OC(=O)c1ccc(N2CCC3(CCCC(=O)NC3=O)CC2=O)nc1` (centres unmarked) [Example 108, tert-Butyl 6-(4,7,9-trioxo-3,8-diazaspiro [5.6]dodecan-3-yl) pyridine-3-carboxylate] cannot be ordered by Kd: ≥ 100 µM for the first, 50 to 100 µM for the second.

`CC(C)(C)OC(=O)c1ccnc(N2CCC3(CCCC(=O)NC3=O)C2)c1` (centres unmarked) [Example 91, tert-Butyl 2-(6,8-dioxo-2,7-diazaspiro [4.6]undecan-2-yl) pyridine-4-carboxylate] and `CC(C)(C)OC(=O)c1cccc(N2CCC3(CCCC(=O)NC3=O)C2)n1` (centres unmarked) [Example 92, tert-Butyl 6-(6,8-dioxo-2,7-diazaspiro [4.6]undecan-2-yl) pyridine-2-carboxylate] cannot be ordered by Kd: 50 to 100 µM for the first, ≥ 100 µM for the second.

`CC(C)(C)OC(=O)c1ccc(N2CCC3(CCCC(=O)NC3=O)CC2)nc1` [Example 94, tert-Butyl 6-(7,9-dioxo-3,8-diazaspiro [5.6]dodecan-3-yl) pyridine-3-carboxylate] and `CC(C)(C)OC(=O)c1ccc(N2CC3(CCCC(=O)NC3=O)CC2=O)nc1` (centres unmarked) [Example 113, tert-Butyl 6-(3,6,8-trioxo-2,7-diazaspiro [4.6]undecan-2-yl) pyridine-3-carboxylate] cannot be ordered by Kd: 50 to 100 µM for the first, ≥ 100 µM for the second.

First: CC(C)(C)OC(=O)c1cnc(N2CCC3(CCCC(=O)NC3=O)C2)s1 (centres unmarked) [Example 95, tert-Butyl 2-(6,8-dioxo-2,7-diazaspiro [4.6]undecan-2-yl)-1,3-thiazole-5-carboxylate]
Second: CC(C)(C)OC(=O)c1cccc(N2CCC3(CCCC(=O)NC3=O)C2)c1 (centres unmarked) [Example 123, tert-Butyl 3-(6,8-dioxo-2,7-diazaspiro [4.6]undecan-2-yl) benzoate]
The Kd of the first is higher: ≥ 100 µM for the first, < 50 µM for the second.

`CNC(=O)c1ccc(N2CCC3(CCCC(=O)NC3=O)C2)nc1` (centres unmarked) [Example 96, 6-(6,8-Dioxo-2,7-diazaspiro [4.6]undecan-2-yl)-N-methylpyridine-3-carboxamide] and `COc1ccnc(N2CCC3(CCCC(=O)NC3=O)C2)c1` (centres unmarked) [Example 125, 2-(4-Methoxy-2-pyridyl)-2,7-diazaspiro [4.6]undecane-6,8-dione] cannot be ordered by Kd: ≥ 100 µM for the first, ≥ 100 µM for the second.

`CC(C)(C)OC(=O)N1CCN(C(=O)c2ccc(N3CCC4(CCCC(=O)NC4=O)C3)nc2)CC1` (centres unmarked) [Example 97, tert-Butyl 4-[6-(6,8-dioxo-2,7-diazaspiro [4.6]undecan-2-yl)pyridine-3-carbonyl]piperazine-1-carboxylate] and `CC(C)(C)OC(=O)N1CCN(c2ccnc(N3CCC4(CCCC(=O)NC4=O)C3)c2)CC1` (centres unmarked) [Example 126, tert-Butyl 4-[2-(6,8-dioxo-2,7-diazaspiro [4.6]undecan-2-yl)-4-pyridyl]piperazine-1-carboxylate] cannot be ordered by Kd: ≥ 100 µM for the first, ≥ 100 µM for the second.

`O=C1CCCC2(CCCN(C(=O)c3ccccc3)C2)C(=O)N1` (centres unmarked) [Example 104, 2-Benzoyl-2,8-diazaspiro [5.6]dodecane-7,9-dione] and `O=C1CCCC2(CCN(C(=O)c3ccccc3)C2)C(=O)N1` (centres unmarked) [Example 122, 2-Benzoyl-2,7-diazaspiro [4.6]undecane-6,8-dione] cannot be ordered by Kd: ≥ 100 µM for the first, ≥ 100 µM for the second.

`O=C1CCCC2(CCN(C(=O)c3ccccc3)CC2)C(=O)N1` [Example 106, 3-Benzoyl-3,8-diazaspiro [5.6]dodecane-7,9-dione] and `CC(C)(C)OC(=O)c1cccc(N2CCC3(CCCC(=O)NC3=O)CC2=O)c1` (centres unmarked) [Example 110, tert-Butyl 3-(4,7,9-trioxo-3,8-diazaspiro [5.6]dodecan-3-yl) benzoate] cannot be ordered by Kd: ≥ 100 µM for the first, ≥ 100 µM for the second.

First: CC(C)(C)OC(=O)c1ccc(N2CCC3(CCCC(=O)NC3=O)CC2=O)cc1 (centres unmarked) [Example 109, tert-Butyl 4-(4,7,9-trioxo-3,8-diazaspiro [5.6]dodecan-3-yl) benzoate]
Second: CC(C)(C)OC(=O)c1ccc(CN2CCC3(CCCC(=O)NC3=O)CC2=O)cc1 (centres unmarked) [Example 111, tert-Butyl 4-[(4,7,9-trioxo-3,8-diazaspiro [5.6]dodecan-3-yl)methyl]benzoate]
The Kd of the first is lower: < 50 µM for the first, 50 to 100 µM for the second.

`CC(C)(C)OC(=O)c1cnc(N2CCCC(=O)NC2=O)s1` [Example 115, tert-Butyl 2-(2,4-dioxo-1,3-diazepan-1-yl) thiazole-5-carboxylate] and `Nc1ccc2nc(N3CCCC(=O)NC3=O)sc2c1` [Example 118, 1-(6-Amino-1,3-benzothiazol-2-yl)-1,3-diazepane-2,4-dione] cannot be ordered by Kd: 50 to 100 µM for the first, ≥ 100 µM for the second.

Going from `O=C1CCCN(c2nc3ccc([N+](=O)[O-])cc3s2)C(=O)N1` [Example 116, 1-(6-Nitro-1,3-benzothiazol-2-yl)-1,3-diazepane-2,4-dione] to `O=C1CCCN(c2ccc3ncccc3c2)C(=O)N1` [Example 117, 1-Quinolin-6-yl-1,3-diazepane-2,4-dione], the Kd rises from < 50 µM to ≥ 100 µM.

`CN(c1ccc([N+](=O)[O-])cc1)C1CCCC(=O)NC1=O` (centres unmarked) [Example 120, 3-(N-Methyl-4-nitro-anilino) azepane-2,7-dione] and `CC(=O)Nc1ccc(N(C)C2CCCC(=O)NC2=O)cc1` (centres unmarked) [Example 121, N-[4-[(2,7-Dioxoazepan-3-yl)-methyl-amino]phenyl]acetamide] cannot be ordered by Kd: ≥ 100 µM for the first, ≥ 100 µM for the second.

First: O=C1CCCC2(CCN(c3ncc(Br)cn3)C2)C(=O)N1 (centres unmarked) [Example 127, 2-(5-Bromopyrimidin-2-yl)-2,7-diazaspiro [4.6]undecane-6,8-dione]
Second: CC(C)(C)OC(=O)c1ccc(N2CCC3(CCCC(=O)NC3=O)C2)cc1 (centres unmarked) [Example 128, tert-Butyl 4-(6,8-dioxo-2,7-diazaspiro [4.6]undecan-2-yl) benzoate]
The Kd of the first is higher: ≥ 100 µM for the first, < 50 µM for the second.

`CC(C)(C)OC(=O)c1ccc(N2CCC3(CC=CC(=O)NC3=O)C2)nc1` (centres unmarked) [Example 131, tert-Butyl 6-(6,8-dioxo-2,7-diazaspiro [4.6]undec-9-en-2-yl) pyridine-3-carboxylate] and `CC(C)(C)OC(=O)/C=C/c1nn(C2CCCC(=O)NC2=O)c2ccccc12` (centres unmarked) [Example 136] cannot be ordered by Kd: ≥ 100 µM for the first, 50 to 100 µM for the second.

`CC1(c2cccc(N)c2)CCCC(=O)NC1=O` (centres unmarked) [Example 133, 3-(3-Aminophenyl)-3-methyl-azepane-2,7-dione] and `CC(=O)Nc1cccc(C2(C)CCCC(=O)NC2=O)c1` (centres unmarked) [Example 134, N-[3-(3-Methyl-2,7-dioxoazepan-3-yl)phenyl]acetamide] cannot be ordered by Kd: ≥ 100 µM for the first, 50 to 100 µM for the second.

First: O=C1CCCC(n2nc(I)c3ccccc32)C(=O)N1 (centres unmarked) [Example 135, 3-(3-Iodoindazol-1-yl)azepane-2,7-dione]
Second: CC(C)(C)OC(=O)Cn1c(=O)n(C2CCCC(=O)NC2=O)c2ccccc21 (centres unmarked) [Example 138, tert-Butyl 2-[3-(2,7-dioxoazepan-3-yl)-2-oxo-benzimidazol-1-yl]acetate]
The Kd of the first is lower: < 50 µM for the first, 50 to 100 µM for the second.

`Cn1c(=O)n(C2CCCC(=O)NC2=O)c2ccc(Br)cc21` (centres unmarked) [Example 139, 3-(5-Bromo-3-methyl-2-oxobenzimidazol-1-yl) azepane-2,7-dione] and `Cn1c(=O)n(C2CCCC(=O)NC2=O)c2ccc(/C=C/C(=O)OC(C)(C)C)cc21` (centres unmarked) [Example 140, tert-Butyl (E)-3-[1-(2,7-oxazepan-3-yl)-3-methyl-2-oxo-benzimidazol-5-yl]-2-propenoate] cannot be ordered by Kd: 50 to 100 µM for the first, ≥ 100 µM for the second.

First: Cn1c(=O)n(C2CCCC(=O)NC2=O)c2ccc(CCC(=O)OC(C)(C)C)cc21 (centres unmarked) [Example 141]
Second: NC(=O)c1nn(-c2ccc(C(=O)NCCOCCOCCNC(=O)c3ccnc(N4CCC5(CCCC(=O)NC5=O)C4)c3)cc2)cc1NC(=O)c1coc(-c2ccnc(NCC3CC3)c2)n1 (centres unmarked) [Example 142, N-[3-Carbamoyl-1-[4-[2-[2-[2-[[2-(6,8-dioxo-2,7-diazaspiro [4.6]undecan-2-yl)pyridine-4-carbonyl]amino]ethoxy]ethoxy]ethylcarbamoyl]phenyl]-pyrazol-4-yl]-2-[2-(cyclopropylmethylamino)-4-pyridyl]oxazole-4-carboxamide]
The Kd of the first is higher: 50 to 100 µM for the first, < 50 µM for the second. The second binds more tightly here.
